Test results: patent US20170216252A1, “ANTI-BACTERIAL PYRUVATE KINASE MODULATOR COMPOUNDS, COMPOSITIONS, USES AND METHODS” (SIMON FRASER UNIVERSITY, priority 2014, published 2017)
Several values for one entry are separate records, joined by “and”; a condition that tells them apart may be missing. Equal values may be shown once. Read-outs that look alike come from different tables or passages of the source.

Molecular target: T1, MRSA PK (Staphylococcus aureus, UniProt Q6GG09)
T1 construct: His tag (pET-28a(+) vector) (N); made in house; host or cells: E. coli BL-21 (DE3)
T1 sequence (Q6GG09 whole entry): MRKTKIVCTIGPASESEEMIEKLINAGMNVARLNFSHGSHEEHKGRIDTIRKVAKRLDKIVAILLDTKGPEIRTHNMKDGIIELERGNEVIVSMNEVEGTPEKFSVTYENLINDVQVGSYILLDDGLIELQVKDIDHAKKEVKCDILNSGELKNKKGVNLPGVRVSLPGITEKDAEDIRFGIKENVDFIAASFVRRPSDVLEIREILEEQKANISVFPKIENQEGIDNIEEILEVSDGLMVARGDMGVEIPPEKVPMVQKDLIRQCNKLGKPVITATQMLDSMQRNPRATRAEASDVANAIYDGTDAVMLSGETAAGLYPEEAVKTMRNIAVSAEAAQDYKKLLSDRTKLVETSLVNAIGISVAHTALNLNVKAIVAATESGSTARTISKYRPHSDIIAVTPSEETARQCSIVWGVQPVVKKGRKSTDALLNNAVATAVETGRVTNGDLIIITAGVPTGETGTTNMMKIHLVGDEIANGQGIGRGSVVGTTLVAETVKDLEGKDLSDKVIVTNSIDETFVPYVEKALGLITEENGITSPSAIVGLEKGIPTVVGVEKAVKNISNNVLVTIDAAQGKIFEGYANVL
Assay: MRSA PK activity, continuous LDH-coupled assay
Format: biochemical, S. aureus (MRSA strain Sanger 252)
Settings: for inhibition at 10 µM: read-out: % Inhibition MRSA PK
Method in brief: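 Purified His-tagged MRSA PK (15 nM, E. coli-expressed) started reactions run up to 5 min at 30 °C. Activity was followed continuously by LDH-coupled NADH oxidation at 340 nm, with DMSO ≤1%. IC50 came from four-parameter variable-slope fits.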

[1] = Tables 1-6, 2 mM ADP, 10 mM PEP, 15 nM PK, read-out: IC50

Compound | IC50 [1] | inhibition at 10 µM [%] | IC50 [nM]
Brc1ccc2cc(-c3cc4ccc(Br)cc4[nH]3)[nH]c2c1 [Compound 10b, 6,6′-Dibromo-1H,1′H-2,2′-biindole] | 7 nM | 84.9 | –
Brc1ccc2[nH]c(-c3cc4ccc(Br)cc4[nH]3)cc2c1 [Compound 10c, 5,6-Bibromo-1H,1′H-2,2′-biiindole] | 2.2 nM | 97.8 | –
Brc1ccc2[nH]c(-c3cc4cc(Br)ccc4[nH]3)cc2c1 [Compound 10i, 5,5′-Bibromo-1H,1′H-2,2′-biindole] | 3 nM | 71 | –
Brc1ccc2cc(-c3cc4cc(Br)c(Br)cc4[nH]3)[nH]c2c1 [Compound 10k, 5,6,6′-Tribromo-1H,1′H-2,2′-biindole] | 1.5 nM | 94.1 | –
Brc1cc2cc(-c3cc4cc(Br)c(Br)cc4[nH]3)[nH]c2cc1Br [Compound 10l, 5,5′,6,6′-Tetrabromo-1H,1′H-2,2′-biindole] | 2 nM | 97.6 | –
Cn1c(-c2cc3ccc(Br)cc3[nH]2)cc2cc(Br)ccc21 [Compound 12a, 5,6′-Dibromo-1-methyl-1H,1′H-2,2′-biindole] | 1 nM | 99 | –
OCCn1c(-c2cc3ccc(Br)cc3[nH]2)cc2cc(Br)ccc21 [Compound 17, 2-(5,6′-Dibromo-1H, 1′H-[2,2′-biindol]-1-yl)ethanol] | 1.3 nM | 101 | –
CN1CCN(CCn2c(-c3cc4ccc(Br)cc4[nH]3)cc3cc(Br)ccc32)CC1 [Compound 20a, 5,6′-Dibromo-1-(2-(4-methylpiperazin-1-yl)ethyl)-1H,1′H-2,2′-biindole] | 2 nM | 100 | –
Brc1ccc2c(c1)cc(-c1cc3ccc(Br)cc3[nH]1)n2CCN1CCOCC1 [Compound 20b, 4-(2-(5,6′-dibromo-1H,1′H-[2,2′-biindol]-1-yl)ethyl)morpholine] | 1.2 nM | 101 | –
Brc1ccc2cc(-c3nc4ccccc4s3)[nH]c2c1 [Compound 22a, 2-(6-Bromo-1H-indol-2-yl)benzo[d]thiazole] | 152 nM | 89.8 | –
Brc1ccc2cc(-c3cc4ccccc4o3)[nH]c2c1 [Compound 22b, 2-(Benzofuran-2-yl)-6-bromo-1H-indole] | 108 nM | 95.9 | –
Brc1ccc2[nH]c(C#Cc3cc4ccc(Br)cc4[nH]3)cc2c1 [Compound 25c, 6-Bromo-2-((5-bromo-1H-indol-2-yl)ethynyl)-1H-indole] | 4.7 nM | 86.3 | –
Brc1ccc2cc(/C=C/c3cc4ccccc4[nH]3)[nH]c2c1 [Compound 27a, (E)-2-(2-(1H-indol-2-yl)vinyl)-6-bromo-1H-indole] | 4.5 nM | 93.4 | –
Brc1ccc2cc(CCc3cc4ccc(Br)cc4[nH]3)[nH]c2c1 [Compound 28a, 1,2-bis(6-bromo-1H-indol-2-yl)ethane] | 6 nM and 6.5 nM | 93.4 | –
COc1cc(-c2cc3ccccc3[nH]2)ccc1-c1cc2ccc(Br)cc2[nH]1 [Compound 33e, 2-(4-(1H-indol-2-yl)-2-methoxyphenyl)-6-bromo-1H-indole] | 2.1 nM | 62.2 | –
O=C(c1c(-c2cc3cc(Cl)ccc3[nH]2)[nH]c2cc(Br)ccc12)C(F)(F)F [Compound 178, 1-(6-bromo-5′-chloro-1H,1′H-[2,2′-biindol]-3-yl)-2,2,2-trifluoroethan-1-one] | – | – | < 50
